Legend:
C57BL/6N male mice = assay: Indirect calorimetry in HFD-fed mice; assay type: in vivo, mouse; conditions: HFD mixed with UCB9608 (5 mg/kg) 3 weeks, vs DMSO
Description: 8-10 weeks old C57BL/6N male mice were fed on HFD mixing with DMSO or UCB9608 (5 mg/kg) for 3 weeks before indirect calorimetry measurements were performed with Phenomaster (TSE systems) according to the manufacturer's instructions. Animals were single caged and adapted to the metabolic cage for 48h prior to metabolic recording. The energy expenditure between both groups was analyzed via ANCOVA method and RER was analyzed via two-way ANOVA method.

ATGL = ATGL response to glucose deprivation after UCB9608-mediated depletion of Golgi Ptdlns4P; assay type: cell-based; conditions: Golgi Ptdlns4P depleted by UCB9608
[1] = Precipitation of DMSO solution on mixing with water; assay type: physicochemical; conditions: dissolved in DMSO, not circulated
[2] = test system: male C57BL/6N wild-type mice; assay: HFD-induced hepatic steatosis (NAFLD) mouse model; assay type: in vivo; conditions: HFD 12 weeks
Description: Male mice were used for NAFLD induction via feeding on HFD. ROSA26-LSL-spCas9 mice were injected with AAV-U6-Cu/7 gRNAs-TBG-Cre and AAV-U6-Fbxw8 gRNAs-TBG-Cre virus pools at a dose of 3×10^11 genome copies/mouse and fed in HFD for 12 weeks and livers were harvested after 6 hours fasting. To study PI4KB in NAFLD progression, male ROSA26-LSL-spCas9 mice were fed in HFD for 12 weeks to induce fatty liver before induction of hepatocyte specific depletion of PI4KB via intravenous administration of AAV8. After another 8 weeks, mice were dissected to harvest liver after 6 hours fasting. Likewise, male C57BL/6N wild-type mice and liver specific Atgl knockout mice (AtgILKO) were challenged with HFD for 12 weeks to induce fatty liver prior to administration of UCB9608 mixed in HFD (5 mg/kg) for another 8 weeks. Then the mice were dissected to harvest tissues and sample blood after 6 hours fasting Atgl floxed mice (The Jackson Lab strain) were crossed with Albumin-Cre (The Jackson Lab strain) and Adip-CreERT2 strains to obtain Alb-Atgfl^fl/fl and AdipcreERT2-Atgl^fl/fl mice (Sitnick,M.T. et al, Diabetes 62, (2013)), which deplete ATGL protein in the liver and the adipose depots (induced after tamoxifen gavage), respectively. Male mice from both strains were injected with 2-DG (2 g/kg BW) to induce glucose deprivation for 6 hours prior to tissue and blood harvesting.
Adipose depots, liver pieces, differentiated iBAs, HepG2, HEK293T and HEK293-AAV cell types were homogenized in RIPA buffer (50 mM Tris-HCl pH 7.4, 150 mM NaCl, 2 mM EDTA, 1.0% Triton X100, 0.5% sodium deoxycholate) with protease inhibitors (Complete, Roche) and phosphatase inhibitors (Halt phosphatase inhibitor cocktail, ThermoFisher). The homogenates were centrifuged at 12,000×g for 10 min at 4°C to remove debris and collect whole cell extract (WCE). The concentration of WCE was determined by DC Protein Assay (Bio-Rad). After boiling the sample with Lämmeli buffer at 95°C for 5 min, equal amount of proteins was loaded and separated on 12% SDS-PAGE. The proteins were transferred to nitrocellulose membrane and blotted by ATGL (1:1000, Cell Signaling), CGI-58 (1:1000, Proteintech), phospho-HSL(Ser660) (1:1000, Cell Signaling), PLIN1 (1:1000, Cell Signaling), HSL (1:1000, Cell Signaling), γ-tubulin (1:10000, Sigma), FLAG (1:10000, Sigma; 1:1000, Cell Signaling), MGL (1:1000, Abcam), HA (1:1000, Cell signaling), FBXW8 (1:100, Santa Cruz; 1:1000, Sigma), CUL7 (1:100, Santa Cruz), HSP90 (1:1000, Cell Signaling), K48 polyubiquitin (1:1000, Cell signaling), PI4KB (1:1000, Sigma), SACM1L (1:1000, Sigma), AKT1 (1:1000, Cell Signaling), phospho-AKT1(Ser473) (1:1000, Cell Signaling), TGN46 (1:1000, Abcam), MAOA (1:1000, Abcam), PLIN2 (1:1000, Abcam), PMP70 (1:10000, Sigma), Calnexin (1:1000, Cell Signaling), ARF1 (1:1000, Invitrogen), GAPDH (1:1000, Cell Signaling), RAB7 (1:1000, Cell Signaling), alpha 1 Sodium Potassium ATPase (1:1000, Abcam), Cleaved Caspase-3 (1:1000, Cell Signaling), phospho-AMPKα (Thr172) (1:1000, Cell Signaling), AMPKα (1:1000, Cell Signaling) and GM130 (1:1000, Proteintech). […]
Plasma collected from mice under different conditions was used to determine levels of lipolysis and liver injury. FFA levels were measured via NEFA assay kit (Wako NEFA kit). TG levels were determined via TG assay kit (Roche Trig/GB reagent). […] The absorbance was monitored using Synergy Gen5 Platereader.
Weight of liver pieces (50-100 mg) was recorded before homogenization by 1 mL isopropanol per 50 mg tissue. […]

[3] = then UCB9608 in HFD (5 mg/kg) 8 weeks, vs DMSO

## COc1ccc(NC(=O)N2CCN(c3nc(N)nc4c3cnn4C)[C@@H](C)C2)c(C)c1 [UCB9608]
C57BL/6N male mice
  energy expenditure: higher
ATGL
  ATGL response to glucose deprivation: loss of ATGL regulation
[1]
  behaviour of DMSO solution mixed with water: precipitated
[2]; [3]
  ATGL protein levels in the gWAT: significantly greater
  ATGL protein levels in the iBAT: significantly greater
  ATGL protein levels in the liver: significantly greater
[2]; then UCB9608 in HFD (5 mg/kg) 8 weeks, requires ATGL in the liver (Fig. 6h)
  hepatic steatosis (hepatic TG levels): substantially attenuated
[2]; then UCB9608 mixed in HFD (5 mg/kg) 8 weeks, vs DMSO (Fig. 6g)
  plasma FFA levels: significantly increased

From EP4623912A1, “A METHOD FOR DEFATTENING A STEATOTIC LIVER EX VIVO” (ETH Zurich, priority 2024, dated 2025)
